Results reported in PubChem BioAssay AID2060603 (Molecular Pharmacology Branch, DTP, NCI, 2025).

Tested on: 422866-222-R5-J1-PDC spheroid viability
Test: Anticancer human tumor 422866-222-R5-J1-PDC patient-derived pancreatic adenocarcinoma cell line growth inhibition [CLK]
Details: spheroids with HUVEC and MSC; for IC50: curve of first compound; for viability, T/C: stronger effect = lower value
Excerpt: A high-throughput screen of multi-cell type tumor spheroids was designed to identify active combinations of […] and targeted small molecules. Complex spheroids include a stromal component modeled by human endothelial cells (HUVEC) and fibroblasts modeled by human mesenchymal stem cells (MSCs). The concentration ranges selected for each drug and investigational agent were based upon clinically achievable concentrations if the clinical Cmax of the agent was known.
Compounds. The drugs and investigational agents: cirtuvivint (SM08502; NSC835563), CC-671 (NSC850746), vemurafenib (NSC761431), tapotoclax (NSC804041), sotorasib (NSC818433), adagrasib (NSC831453), MRTX-1133 (NSC836407), BAY2416964 (NSC825713), copanlisib (NSC816437), inavolisib (NSC800729), abemaciclib (NSC768073), osimertinib (NSC779217), entinostat (NSC756642), eltanexor (KPT-8602, NSC794443), venetoclax (NSC766270), ceralasertib (NSC777638), bortezomib (NSC756655), olaparib (NSC753686), talazoparib (NSC767125), alisertib (NSC759677), peposertib (NSC802822), gemcitabine (NSC613327), 5-fluorouracil (NSC19893), SN-38 (NSC673596), oxaliplatin (NSC266046), paclitaxel (NSC125973), and doxorubicin (NSC123127), were obtained from the National Cancer Institute (NCI) Developmental Therapeutics Program Chemical Repository. The FDA-approved anticancer drug set is available from the Developmental Therapeutics Program at https://dtp.cancer.gov/organization/dscb/obtaining/available plates.htm. […] The stock solutions were prepared in dimethyl sulfoxide (DMSO, Sigma-Aldrich, St. Louis, MO, cat. D2650), except for the platinum complexes which were prepared in saline (Quality Biological, Gaithersburg, MD, cat. 114-055-101), at 800-fold the tested concentration and stored at -70 degrees C prior to their use. All drugs and investigational agents were tested over a range starting from a high concentration at or near the clinical Cmax and decreasing in half-log increments. If the clinical Cmax for an agent had not been determined, the highest concentration tested was 10 microM.
Cell Culture. All cells were maintained in an incubator at 37 degrees C and 5% CO2 with 95% humidity. The PDC lines were cultured according to standard operating procedures established by the NCI PDMR. Briefly, all PDCs were thawed and cultured in Matrigel-coated flasks prepared with a working solution of 1X Ham's F-12 nutrient mix, without supplementation (Invitrogen, Waltham, MA, cat. 11765054), 100 U/mL penicillin-streptomycin (Invitrogen, cat. 15140122), and 2.5% Matrigel (Corning Inc., Corning, NY, cat. 354248) for the first three passages. The 947758-054-R-J2-PDC line was cultured in 6B/Colon 1A media, which includes advanced DMEM/F-12 (Thermo Fisher Scientific, cat. 12634028), 10 mM HEPES (Thermo Fisher Scientific, cat. 15630080), 1X GlutaMAX supplement (Thermo Fisher Scientific, cat. 35050061), 0.1 mg/mL primocin (InvivoGen, cat. ant-pm-2), 10% defined fetal bovine serum, heat inactivated (HyClone Laboratories Inc., cat. SH30070.03HI), 1.25 mM N-Acetyl-L-cysteine (Sigma-Aldrich, cat. A9165), 10 mM nicotinamide (Sigma-Aldrich, cat. N0636), 1X B-27 supplement (Thermo Fisher Scientific, cat. 17504044), 1X N-2 supplement (Thermo Fisher Scientific, cat. 17502048), and 10 microM Y-27632 dihydrochloride (Tocris Bioscience, cat. 1254). The 876862-298-R-J1-PDC was cultured in 6E media, which includes all 6B/Colon 1A media components plus 50% L-WRN conditioned media (ATCC, cat. CRL-3276), 50 ng/mL recombinant human EGF recombinant protein (hEGF; Thermo Fisher Scientific, cat. PHG0311), 10 ng/mL recombinant human fibroblast growth factor 10 (hGFG-10; PeproTech, cat. 100-26), 1 ng/mL recombinant human fibroblast growth factor 2 (hFGF-2; PeproTech, cat. 100-18B), and 1 µM prostaglandin E2 (PGE2; Tocris, cat. 2296). The 227483-062-R1-J1-PDC line was cultured in Panc media, containing all 6E components except hFGF-2, with the addition of 500 nM SB-431542 (Selleckchem, cat. S1067) and 10 nM gastrin (Tocris, cat. 3006). […]

[1] = second compound 0.0316 µM, first compound 0.0316 µM
[2] = second compound 0.0316 µM, first compound 0.1 µM
[3] = second compound 0.0316 µM, first compound 0.316 µM
[4] = second compound 0.0316 µM, first compound 1 µM
[5] = second compound 0.0316 µM, first compound 3.16 µM
[6] = second compound 0.0316 µM, first compound 10 µM
[7] = second compound 0.1 µM, first compound 0.0316 µM
[8] = second compound 0.1 µM, first compound 0.1 µM
[9] = second compound 0.1 µM, first compound 0.316 µM
[10] = second compound 0.1 µM, first compound 1 µM
[11] = second compound 0.1 µM, first compound 3.16 µM
[12] = second compound 0.1 µM, first compound 10 µM
[13] = second compound 0.316 µM, first compound 0.0316 µM
[14] = second compound 0.316 µM, first compound 0.1 µM
[15] = second compound 0.316 µM, first compound 0.316 µM
[16] = second compound 0.316 µM, first compound 1 µM
[17] = second compound 0.316 µM, first compound 3.16 µM
[18] = second compound 0.316 µM, first compound 10 µM
[19] = second compound 1 µM, first compound 0.0316 µM
[20] = second compound 1 µM, first compound 0.1 µM
[21] = second compound 1 µM, first compound 0.316 µM
[22] = second compound 1 µM, first compound 1 µM
[23] = second compound 1 µM, first compound 3.16 µM
[24] = second compound 1 µM, first compound 10 µM
[25] = second compound 3.16 µM, first compound 0.0316 µM
[26] = second compound 3.16 µM, first compound 0.1 µM
[27] = second compound 3.16 µM, first compound 0.316 µM
[28] = second compound 3.16 µM, first compound 1 µM
[29] = second compound 3.16 µM, first compound 3.16 µM
[30] = second compound 3.16 µM, first compound 10 µM
[31] = second compound 10 µM, first compound 0.0316 µM
[32] = second compound 10 µM, first compound 0.1 µM
[33] = second compound 10 µM, first compound 0.316 µM
[34] = second compound 10 µM, first compound 1 µM
[35] = second compound 10 µM, first compound 3.16 µM
[36] = second compound 10 µM, first compound 10 µM
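Further: spheroids exposed to agents for seven days before readout.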

## C=C(F)C(=O)N1CCN(c2nc(OCC3CCCN3C)nc3c2CCN(c2cccc4cccc(Cl)c24)C3)CC1CC#N (centres undefined) + CN1CCN(c2cc(C(=O)Nc3cc4cc(-c5cnn(C)c5)ccc4cn3)ccn2)CC1
Second compound 0.0316 µM
  IC50: < 31.6 nM
Second compound 0.1 µM
  IC50: < 31.6 nM
Second compound 0.316 µM
  IC50: < 31.6 nM
Second compound 1 µM
  IC50: < 31.6 nM
Second compound 3.16 µM
  IC50: < 31.6 nM
Second compound 10 µM
  IC50: < 31.6 nM
[1]
  viability, T/C: 40.6%
[2]
  viability, T/C: 29.3%
[3]
  viability, T/C: 27%
[4]
  viability, T/C: 26.2%
[5]
  viability, T/C: 15.9%
[6]
  viability, T/C: 2.17%
[7]
  viability, T/C: 45.5%
[8]
  viability, T/C: 33.9%
[9]
  viability, T/C: 29.3%
[10]
  viability, T/C: 25.1%
[11]
  viability, T/C: 19.9%
[12]
  viability, T/C: 1.79%
[13]
  viability, T/C: 42.4%
[14]
  viability, T/C: 30.6%
[15]
  viability, T/C: 27.9%
[16]
  viability, T/C: 20.1%
[17]
  viability, T/C: 20%
[18]
  viability, T/C: 0.13%
[19]
  viability, T/C: 19.9%
[20]
  viability, T/C: 18.5%
[21]
  viability, T/C: 18.6%
[22]
  viability, T/C: 16.4%
[23]
  viability, T/C: 10.2%
[24]
  viability, T/C: 0.1%
[25]
  viability, T/C: 4.24%
[26]
  viability, T/C: 4.94%
[27]
  viability, T/C: 4.57%
[28]
  viability, T/C: 3.86%
[29]
  viability, T/C: 4.64%
[30]
  viability, T/C: 0.71%
[31]
  viability, T/C: 3.87%
[32]
  viability, T/C: 0.7%
[33]
  viability, T/C: 0.93%
[34]
  viability, T/C: 0.72%
[35]
  viability, T/C: 0.46%
[36]
  viability, T/C: 0.15%

## C=CC(=O)N1CCN(c2nc(=O)n(-c3c(C)ccnc3C(C)C)c3nc(-c4c(O)cccc4F)c(F)cc23)C(C)C1 (centres undefined) + CN1CCN(c2cc(C(=O)Nc3cc4cc(-c5cnn(C)c5)ccc4cn3)ccn2)CC1
Second compound 0.0316 µM
  IC50: < 31.6 nM
Second compound 0.1 µM
  IC50: < 31.6 nM
Second compound 0.316 µM
  IC50: < 31.6 nM
Second compound 1 µM
  IC50: < 31.6 nM
Second compound 3.16 µM
  IC50: < 31.6 nM
Second compound 10 µM
  IC50: < 31.6 nM
[1]
  viability, T/C: 44.6%
[2]
  viability, T/C: 30.4%
[3]
  viability, T/C: 40.1%
[4]
  viability, T/C: 30.5%
[5]
  viability, T/C: 29%
[6]
  viability, T/C: 35.3%
[7]
  viability, T/C: 46.9%
[8]
  viability, T/C: 38.4%
[9]
  viability, T/C: 36.6%
[10]
  viability, T/C: 38.7%
[11]
  viability, T/C: 35.1%
[12]
  viability, T/C: 38.5%
[13]
  viability, T/C: 42.7%
[14]
  viability, T/C: 35.4%
[15]
  viability, T/C: 29.9%
[16]
  viability, T/C: 32.2%
[17]
  viability, T/C: 33.9%
[18]
  viability, T/C: 28.5%
[19]
  viability, T/C: 20.9%
[20]
  viability, T/C: 21.5%
[21]
  viability, T/C: 21.2%
[22]
  viability, T/C: 20.8%
[23]
  viability, T/C: 17.6%
[24]
  viability, T/C: 8.28%
[25]
  viability, T/C: 4.94%
[26]
  viability, T/C: 5.81%
[27]
  viability, T/C: 5.39%
[28]
  viability, T/C: 6.54%
[29]
  viability, T/C: 6.25%
[30]
  viability, T/C: 7.04%
[31]
  viability, T/C: 0.98%
[32]
  viability, T/C: 0.81%
[33]
  viability, T/C: 0.76%
[34]
  viability, T/C: 0.79%
[35]
  viability, T/C: 0.84%
[36]
  viability, T/C: 2.58%
